Patent publication US20250230193A1, “CYCLIC COMPOUND HAVING SELECTIVE KRAS INHIBITORY EFFECT ON HRAS AND NRAS” (CHUGAI SEIYAKU KABUSHIKI KAISHA, priority 2022, published 2025)

What was measured:
[1] = tested on: human lung cancer strain NCI-H441; assay: cells; conditions: NCI-H441, 96 h, read-out: NCI-H441 IC50 (nM)
[2] = target: GDP-bound NRAS wild-type protein (Homo sapiens, UniProt P01111); assay: Binding to NRAS by surface plasmon resonance (SPR), Single Cycle Kinetics; conditions: SPR; KD ratio class
[3] = target: GDP-bound HRAS wild-type protein (Homo sapiens, UniProt P01112); assay: Binding to HRAS by surface plasmon resonance (SPR), Single Cycle Kinetics; conditions: SPR; KD ratio class
GDP-bound HRAS wild-type protein, sequence (P01112 whole entry): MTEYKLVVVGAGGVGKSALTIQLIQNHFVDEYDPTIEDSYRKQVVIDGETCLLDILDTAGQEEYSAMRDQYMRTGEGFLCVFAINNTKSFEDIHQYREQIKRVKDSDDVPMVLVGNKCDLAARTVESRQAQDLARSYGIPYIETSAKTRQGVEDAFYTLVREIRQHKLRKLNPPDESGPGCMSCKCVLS

GDP-bound NRAS wild-type protein, sequence (P01111 whole entry): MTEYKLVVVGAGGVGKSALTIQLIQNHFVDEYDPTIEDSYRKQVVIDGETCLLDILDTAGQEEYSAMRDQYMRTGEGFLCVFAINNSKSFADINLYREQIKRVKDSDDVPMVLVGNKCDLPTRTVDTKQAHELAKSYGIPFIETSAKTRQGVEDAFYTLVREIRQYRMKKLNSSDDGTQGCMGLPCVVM

SMILES	IC50 [1]	NRAS/KRAS (ratio of KD value for GDP-bound NRAS wild-type protein to KD value for KRAS) [2]	HRAS/KRAS (ratio of KD value for GDP-bound HRAS wild-type protein to KD value for KRAS) [3]
CCC[C@H]1C(=O)N[C@@H]([C@@H](C)CC)C(=O)N(C)CC(=O)N(C)[C@H]2C/C=C\CCN(C2=O)[C@@H](Cc2ccc(C(F)(F)F)cc2)C(=O)N(C)CC(=O)N[C@@H](CCc2ccc(C(F)(F)F)c(OC)c2)C(=O)N2C[C@H](OCC)C[C@H]2C(=O)NC2(CC(C)(C)C2)C(=O)N(C)[C@@H](C2CCCC2)C(=O)N(C)[C@H](C(=O)N(C)C)CC(=O)N1C [PP1560]	1.8 nM	A (a compound having 10 or more and less than 20 is denoted as A)	B (a compound having 3 or more and less than 10 is denoted as B)
CCCC[C@H]1C(=O)N[C@@H]([C@@H](C)CC)C(=O)N(C)CC(=O)N(C)[C@H]2C/C=C\CCN(C2=O)[C@@H](Cc2ccc(C(F)(F)F)cc2)C(=O)N(C)CC(=O)N[C@@H](CCc2ccc(C(F)(F)F)c(OC)c2)C(=O)N2C[C@H](OCC)C[C@H]2C(=O)NC2(CC(C)(C)C2)C(=O)N(C)[C@@H](C2CCCC2)C(=O)N(C)[C@H](C(=O)N(C)C)CC(=O)N1C [PP1561]	2.7 nM	A (a compound having 10 or more and less than 20 is denoted as A)	B (a compound having 3 or more and less than 10 is denoted as B)
CCO[C@@H]1C[C@H]2C(=O)NC3(CC(C)(C)C3)C(=O)N(C)[C@@H](C3CCCC3)C(=O)N(C)[C@H](C(=O)N(C)C)CC(=O)N(C)[C@@H](CC(C)C)C(=O)N[C@@H]([C@@H](C)CC)C(=O)N(C)CC(=O)N(C)[C@H]3C/C=C\CCN(C3=O)[C@@H](Cc3ccc(C(F)(F)F)cc3)C(=O)N(C)CC(=O)N[C@@H](CCc3ccc(C(F)(F)F)c(OC)c3)C(=O)N2C1 [PP1562]	1.7 nM	A (a compound having 10 or more and less than 20 is denoted as A)	A (a compound having 10 or more and less than 20 is denoted as A)
CCO[C@@H]1C[C@H]2C(=O)NC3(CC(C)(C)C3)C(=O)N(C)[C@@H](C3CCCC3)C(=O)N(C)[C@H](C(=O)N(C)C)CC(=O)N(C)[C@@H](CC3CC3)C(=O)N[C@@H]([C@@H](C)CC)C(=O)N(C)CC(=O)N(C)[C@H]3C/C=C\CCN(C3=O)[C@@H](Cc3ccc(C(F)(F)F)cc3)C(=O)N(C)CC(=O)N[C@@H](CCc3ccc(C(F)(F)F)c(OC)c3)C(=O)N2C1 [PP1563]	2.6 nM	A (a compound having 10 or more and less than 20 is denoted as A)	A (a compound having 10 or more and less than 20 is denoted as A)
CCO[C@@H]1C[C@H]2C(=O)NC3(CC(C)(C)C3)C(=O)N(C)[C@@H](C3CCCC3)C(=O)N(C)[C@H](C(=O)N(C)C)CC(=O)N(C)[C@@H](CC3CCC3)C(=O)N[C@@H]([C@@H](C)CC)C(=O)N(C)CC(=O)N(C)[C@H]3C/C=C\CCN(C3=O)[C@@H](Cc3ccc(C(F)(F)F)cc3)C(=O)N(C)CC(=O)N[C@@H](CCc3ccc(C(F)(F)F)c(OC)c3)C(=O)N2C1 [PP1564]	3 nM	A (a compound having 10 or more and less than 20 is denoted as A)	A (a compound having 10 or more and less than 20 is denoted as A)
CCO[C@@H]1C[C@H]2C(=O)NC3(CC(C)(C)C3)C(=O)N(C)[C@@H](C3CCCC3)C(=O)N(C)[C@H](C(=O)N(C)C)CC(=O)N(C)[C@@H](CC3CCCC3)C(=O)N[C@@H]([C@@H](C)CC)C(=O)N(C)CC(=O)N(C)[C@H]3C/C=C\CCN(C3=O)[C@@H](Cc3ccc(C(F)(F)F)cc3)C(=O)N(C)CC(=O)N[C@@H](CCc3ccc(C(F)(F)F)c(OC)c3)C(=O)N2C1 [PP1565]	6.5 nM	A (a compound having 10 or more and less than 20 is denoted as A)	B (a compound having 3 or more and less than 10 is denoted as B)
CC[C@H](C)[C@@H]1NC(=O)[C@H](CC(C)C)N(C)C(=O)C[C@@H](C(=O)N(C)C)N(C)C(=O)[C@H](C2CCCC2)N(C)C(=O)C2(CC(C)(C)C2)NC(=O)[C@@H]2C[C@@H](F)CN2C(=O)[C@H](CCc2cc(F)c(C(F)(F)F)c(F)c2)NC(=O)CN(C)C(=O)[C@H](Cc2ccc(C(F)(F)F)cc2)N2CC/C=C\C[C@@H](C2=O)N(C)C(=O)CN(C)C1=O [PP1566]	2.3 nM	A (a compound having 10 or more and less than 20 is denoted as A)	A (a compound having 10 or more and less than 20 is denoted as A)
CCO[C@@H]1C[C@H]2C(=O)NC3(CC(C)(C)C3)C(=O)N(C)[C@@H](C3CCCC3)C(=O)N(C)[C@H](C(=O)N(C)C)CC(=O)N(C)[C@@H](CC3CC3)C(=O)N[C@@H]([C@@H](C)CC)C(=O)N(C)CC(=O)N(C)[C@H]3C/C=C\CCN(C3=O)[C@@H](Cc3ccc(C(F)(F)F)cc3)C(=O)N(C)CC(=O)N[C@@H](CCc3cc(F)c(C(F)(F)F)c(F)c3)C(=O)N2C1 [PP1568]	2.2 nM	A (a compound having 10 or more and less than 20 is denoted as A)	A (a compound having 10 or more and less than 20 is denoted as A)
CCCOC[C@H]1C(=O)N[C@@H]([C@@H](C)CC)C(=O)N(C)CC(=O)N(C)[C@H]2C/C=C\CCN(C2=O)[C@@H](Cc2ccc(C(F)(F)F)cc2)C(=O)N(C)CC(=O)N[C@@H](CCc2cc(F)c(C(F)(F)F)c(F)c2)C(=O)N2C[C@H](OCC)C[C@H]2C(=O)NC2(CCC2)C(=O)N(C)[C@@H](C2CCCC2)C(=O)N(C)[C@H](C(=O)N(C)CC)CC(=O)N1C [PP1569]	2.8 nM	A (a compound having 10 or more and less than 20 is denoted as A)	B (a compound having 3 or more and less than 10 is denoted as B)
CC[C@H](C)[C@@H]1NC(=O)[C@H](CC2CC2)N(C)C(=O)C[C@@H](C(=O)N(C)CC)N(C)C(=O)[C@H](C2CCCC2)N(C)C(=O)C2(CC(C)(C)C2)NC(=O)[C@@H]2C[C@@H](F)CN2C(=O)[C@H](CCc2cc(F)c(C(F)(F)F)c(F)c2)NC(=O)CN(C)C(=O)[C@H](Cc2ccc(C(F)(F)F)cc2)N2CC/C=C\C[C@@H](C2=O)N(C)C(=O)CN(C)C1=O [PP1570]	2.6 nM	AA (a compound having 20 or more is denoted as AA)	A (a compound having 10 or more and less than 20 is denoted as A)
CC[C@H](C)[C@@H]1NC(=O)[C@H](CC2CC2)N(C)C(=O)C[C@@H](C(=O)N(CC)CC)N(C)C(=O)[C@H](C2CCCC2)N(C)C(=O)C2(CC(C)(C)C2)NC(=O)[C@@H]2C[C@@H](F)CN2C(=O)[C@H](CCc2cc(F)c(C(F)(F)F)c(F)c2)NC(=O)CN(C)C(=O)[C@H](Cc2ccc(C(F)(F)F)cc2)N2CC/C=C\C[C@@H](C2=O)N(C)C(=O)CN(C)C1=O [PP1571]	6.8 nM	A (a compound having 10 or more and less than 20 is denoted as A)	A (a compound having 10 or more and less than 20 is denoted as A)
